Assay results published in PMC6946680, “Modulation of brain cation-Cl^− cotransport via the SPAK kinase inhibitor ZT-1a” (Nature Communications, 2020).
Where “and” joins values, the source holds several entries; their conditions need not be identical. Equal entries are not always repeated.

What was measured:
tSPAK tOSR1 = assay: Immunoblot of total SPAK/OSR1 in ischemic mouse brain membrane and cytosol fractions; assay type: in vivo; details: Cytosol; IL; single samples
NKCC1 = assay: 86Rb+ uptake assay for NKCC1 activity in HEK-293 cells; assay type: cell-based; set-up: key to 86Rb+ uptake: 86Rb+ uptake in CPM per mg protein; details: for 86Rb+ uptake: replicates
Description: (§1) Thirty-six hours post transfection, cells were exposed for 30 min to either control isotonic conditions or hypotonic low [Cl^−] conditions (to activate the SPAK/OSR1 pathway), and then treated for an additional 30 min in the same conditions with the indicated ZT-1a concentrations in the presence of 1 mM ouabain and 0.1 mM bumetanide. Ten-minute ^86Rb^+ uptake values were quantified by scintillation counting, normalized per mg protein for each condition, and plotted for both isotonic and hypotonic conditions. ***p < 0.001; **p < 0.01; *p < 0.05; ns—nonsignificant [by one-way ANOVA with post hoc testing (n = 6, error bars represent the mean ± SEM)]. b ^86Rb^+ uptake assays in the presence of ZT-1a measure transport activity of NKCC1. […] Thirty-six hours post transfection, cells were exposed for 30 min to either control isotonic conditions or hypotonic low [Cl^−] conditions (to activate the SPAK/OSR1 pathway), and then treated in the same conditions for an additional 30 min with 10 µM ZT-1a or 0.1 mM bumetanide (Bum) in the presence of 1 mM ouabain (Na^+/K^+-ATPase inhibitor). ^86Rb^+ uptake was allowed to proceed for 10 min and was then quantified by scintillation counting. ^86Rb^+ uptake CPMs were normalized per mg protein and plotted for both isotonic and hypotonic conditions. […] Thirty-six hours post transfection, cells were exposed for 30 min to either control isotonic conditions or hypotonic low [Cl^−] conditions (to activate the SPAK/OSR1 pathway), and then treated for an additional 30 min in the same conditions with the indicated ZT-1a concentrations in the presence of 1 mM ouabain. Ten-minute ^86Rb^+ uptake values were quantified by scintillation counting, normalized per mg protein for each condition, and plotted for both isotonic and hypotonic conditions. ***p < 0.001; **p < 0.01; *p < 0.05; ns—nonsignificant [by one-way ANOVA with post hoc testing (n = 6, error bars represent the mean ± SEM)].
(§2) This stimulating medium was then removed and replaced with isotonic medium containing inhibitors plus 2 µCi/ml ^86Rb^+. After incubation for 10 min at 37 °C, cells were rapidly washed three times with the respective ice-cold nonradioactive medium. Washed cells were lysed in 300 µl of ice-cold lysis buffer and ^86Rb^+ uptake was quantitated by liquid scintillation counting (PerkinElmer).

pJNK = assay: Immunoblot of phospho-JNK in ischemic mouse brain; assay type: in vivo
Source text: Cytosol and crude membrane protein
Expressions of Na+-K+ ATPase
respectively. d Densitometric analyses of immunoblots.

HEK-293 cells = assay: 86Rb+ uptake assay in empty-vector-transfected HEK-293 cells; assay type: cell-based, human; set-up: key: 86Rb+ uptake in CPM per mg protein; details: Empty V + 1a (10 µM), replicates
Description: as §1, §2

KCC3 = assay: 86Rb+ uptake assay for KCC3 activity in HEK-293 cells; assay type: cell-based, human; set-up: key to 86Rb+ uptake: 86Rb+ uptake CPM normalized per mg protein (10-min uptake); details: for 86Rb+ uptake: replicates
Description: ^86Rb^+ flux assays have been utilized extensively as a reliable measurement of cation chloride cotransporter activity[51]–[54].
as §1, §2

## Cc1cc(C(C#N)c2ccc(Cl)cc2)c(Cl)cc1NC(=O)c1cc(Cl)ccc1O (centres unmarked) [ZT-1a, 5-chloro-N-(5-chloro-4-((4-chlorophenyl)(cyano)methyl)-2-methylphenyl)-2-hydroxybenzamide]
tSPAK tOSR1
  tSPAK tOSR1/GAPDH (fold veh-CL): 1.10 fold veh-CL and 1.64 fold veh-CL and 1.23 fold veh-CL and 1.65 fold veh-CL and 0.87 fold veh-CL
NKCC1; Fig 3b right, NKCC1, ZT-1a 1 uM, Hypotonic low Cl-
  86Rb+ uptake: 31312.2 and 30912.6 and 28110.4 and 29118.3 and 28103.5 and 29176.8
NKCC1; Fig 3b right, NKCC1, ZT-1a 1 uM, Isotonic control
  86Rb+ uptake: 5076.2 and 4867.3 and 5812.7 and 4239.7 and 5129.6 and 5519.2
NKCC1; Fig 3b right, NKCC1, ZT-1a 3 uM, Hypotonic low Cl-
  86Rb+ uptake: 14078.7 and 13156.2 and 15002.4 and 14182.5 and 14354.3 and 14621.6
NKCC1; Fig 3b right, NKCC1, ZT-1a 3 uM, Isotonic control
  86Rb+ uptake: 3812.1 and 3286.7 and 4513.3 and 4013.5 and 3012.8 and 3586.3
NKCC1; Fig 3b right, NKCC1, ZT-1a 10 uM, Hypotonic low Cl-
  86Rb+ uptake: 3712.6 and 5014.2 and 4381.3 and 3518.2 and 4604.5 and 3837.1
NKCC1; Fig 3b right, NKCC1, ZT-1a 10 uM, Isotonic control
  86Rb+ uptake: 1476.7 and 1378.3 and 1409.2 and 1215.2 and 1522.8 and 1368.4
NKCC1; Fig 3b, NKCC1 + 1a (10 µM), Hypotonic low Cl-
  86Rb+ uptake: 7709.2 and 9015.3 and 7102.3 and 8791.5 and 8682.5 and 8108.1
NKCC1; Fig 3b, NKCC1 + 1a (10 µM), Isotonic control
  86Rb+ uptake: 1446.7 and 1247.2 and 1369.6 and 1195.7 and 1501.2 and 1382.8
NKCC1; ZT-1a at concentration > 1 µM, isotonic or hypotonic low Cl−
  NKCC1-mediated K+ influx: significantly inhibited
pJNK; Cytosol, CL, Fig S4d
  pJNK/GAPDH (fold veh-CL): 1.00 fold veh-CL and 1.48 fold veh-CL and 0.87 fold veh-CL and 0.76 fold veh-CL
pJNK; Membrane, IL, Fig S4d
  pJNK/Na K pump (fold veh-CL): 2.05 fold veh-CL and 1.64 fold veh-CL and 1.81 fold veh-CL and 1.40 fold veh-CL
pJNK; ZT-1a 5.0 mg/kg
  p-JNK in ischemic brains: no marked inhibition
HEK-293 cells; Fig 3a, Hypotonic low Cl-, ouabain + bumetanide
  86Rb+ uptake: 508.8 and 600.6 and 529.6 and 455.1 and 564.1 and 478.5
HEK-293 cells; Fig 3a, Isotonic control, ouabain + bumetanide
  86Rb+ uptake: 1279.7 and 1082.2 and 1111.5 and 1436.1 and 1321.4 and 1109.8
HEK-293 cells; Fig 3b, Hypotonic low Cl-, ouabain
  86Rb+ uptake: 1181.7 and 899.6 and 1029.4 and 1120.4 and 1269.1 and 946.3
HEK-293 cells; Fig 3b, Isotonic control, ouabain
  86Rb+ uptake: 905.2 and 735.8 and 874.1 and 801.5 and 957.4 and 886.4
KCC3; 86Rb+ flux, 10 µM ZT-1a, HEK-293
  activation of WT KCC3 (KCC) activity: > 10.6 fold and > 10 fold
KCC3; Fig 3a right, KCC3 wt, ZT-1a 1 uM, Hypotonic low Cl-
  86Rb+ uptake: 1990.9 and 1707.8 and 2071.9 and 2501.3 and 2188.7 and 2073.1
KCC3; Fig 3a right, KCC3 wt, ZT-1a 1 uM, Isotonic control
  86Rb+ uptake: 3241.3 and 3419.1 and 2873.4 and 3612.8 and 2913.5 and 2519.3
KCC3; Fig 3a right, KCC3 wt, ZT-1a 3 uM, Hypotonic low Cl-
  86Rb+ uptake: 4012.2 and 3271.9 and 4514.8 and 3888.6 and 3729.3 and 3910.5
KCC3; Fig 3a right, KCC3 wt, ZT-1a 3 uM, Isotonic control
  86Rb+ uptake: 6755.1 and 6519.9 and 7018.4 and 6691.3 and 7512.7 and 6011.7
KCC3; Fig 3a right, KCC3 wt, ZT-1a 10 uM, Hypotonic low Cl-
  86Rb+ uptake: 11981.4 and 10921.3 and 12650.2 and 11037.8 and 12144.8 and 9615.1
KCC3; Fig 3a right, KCC3 wt, ZT-1a 10 uM, Isotonic control
  86Rb+ uptake: 17537.1 and 16129.4 and 18002.7 and 19588.5 and 17991.3 and 15002.2
KCC3; Fig 3a, KCC3 wt + 1a (10 µM), Hypotonic low Cl-
  86Rb+ uptake: 12251.1 and 13980.5 and 10874.7 and 11830.4 and 14081.1 and 11229.7
KCC3; Fig 3a, KCC3 wt + 1a (10 µM), Isotonic control
  86Rb+ uptake: 17623.6 and 19014.4 and 18719.8 and 19961.7 and 18001.8 and 17951.6
